# Data from patent publication US20060035889A1, “Treatment for methamphetamine addiction and reduction of methamphetamine use using serotonin antagonists” (priority 2004, published 2006).
# Experiments:
# [1] = target: α2; details: read-out: receptor affinity (Ki) α2; cited from earlier work
# [2] = system: METH-sensitized rats; test: Reversal of METH-induced behavioral sensitization by 5-HT2A/2C antagonists (motor activity after acute METH challenge); format: in vivo, rat
# Excerpt: Automation of observational evaluations was accomplished using computerized small animal monitors (AccuScan Instr. Inc., Columbus, Ohio). […] One feature of drug-induced behavioral sensitization is heterogeneity of motor responses and the AccuScan monitors quantify numerous behavioral indices. This is a critical point for the motor profile is exquisitely related to METH dose, the drug history of the rat and observation time. After 3- or 31-days of withdrawal from repeated METH injections, rats were allowed to achieve baseline motor activity with a 30 min habituation period, challenged with 1 mg/kg sc METH and monitored for 90 min.
# Multiple 5-HT2A/2C antagonists with differing pharmacological profiles were tested for their ability to ameliorate METH-induced behavioral sensitization when administered after sensitization has developed. […] The doses were selected based on the antagonists' ability to block 5-HT2A- and 5-HT2C-mediated activity and their pharmacokinetic profiles.
# [3] = target: α1; details: read-out: receptor affinity (Ki) α1; cited from earlier work
# [4] = target: T1, 5-HT3 (Homo sapiens, UniProt P46098); details: read-out: receptor affinity (Ki) 5-HT3; cited from earlier work
# T1 sequence (P46098 24-478): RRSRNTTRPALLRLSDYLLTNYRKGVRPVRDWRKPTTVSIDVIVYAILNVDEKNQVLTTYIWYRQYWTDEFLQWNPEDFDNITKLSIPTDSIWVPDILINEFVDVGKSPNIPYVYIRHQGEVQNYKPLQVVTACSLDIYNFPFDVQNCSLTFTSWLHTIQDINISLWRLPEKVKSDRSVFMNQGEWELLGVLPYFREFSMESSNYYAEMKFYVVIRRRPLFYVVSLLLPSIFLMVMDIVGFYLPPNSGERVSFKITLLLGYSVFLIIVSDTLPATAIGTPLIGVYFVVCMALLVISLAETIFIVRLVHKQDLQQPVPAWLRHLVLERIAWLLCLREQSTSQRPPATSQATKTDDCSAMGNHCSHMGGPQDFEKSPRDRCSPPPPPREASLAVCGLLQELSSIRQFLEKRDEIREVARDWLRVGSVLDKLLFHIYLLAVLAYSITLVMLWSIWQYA
# [5] = target: T2, 5-HT2C (Homo sapiens, UniProt P28335); details: read-out: receptor affinity (Ki) 5-HT2C; cited from earlier work
# T2 sequence (P28335 33-458): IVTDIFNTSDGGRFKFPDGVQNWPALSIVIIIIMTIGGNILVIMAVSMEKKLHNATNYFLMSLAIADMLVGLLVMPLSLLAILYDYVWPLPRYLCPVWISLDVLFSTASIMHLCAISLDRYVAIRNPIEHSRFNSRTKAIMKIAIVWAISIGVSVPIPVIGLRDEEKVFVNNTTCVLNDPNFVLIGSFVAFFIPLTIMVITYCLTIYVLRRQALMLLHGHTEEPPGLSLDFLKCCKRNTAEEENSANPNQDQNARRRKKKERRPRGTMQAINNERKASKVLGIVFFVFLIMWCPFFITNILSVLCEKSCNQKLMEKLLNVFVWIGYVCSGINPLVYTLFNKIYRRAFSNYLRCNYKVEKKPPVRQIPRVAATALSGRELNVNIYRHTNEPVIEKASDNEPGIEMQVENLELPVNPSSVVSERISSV
# [6] = system: METH-conditioned rats; test: METH-induced conditioned place preference (CPP) with simultaneous motor sensitization; format: in vivo, rat
# Excerpt: The CPP box (Accuscan, Columbus, Ohio) consists of three Plexiglas compartments, each with distinct visual and tactile cues (on one side, patterned floor with object attached and horizontally striped wall; on the opposite side, smooth floor with no object and vertically striped walls; center—uniformly white floor and walls). The center compartment can be separated from the left and right compartments by removable guillotine doors. Motor activity in three dimensional space, and time spent, in each compartment is detected by two sets of photobeams set at different heights from the floor. Drug conditioning is performed by administering METH to the rat while it is in one compartment, and on the alternating day, saline is administered while the rat is confined to the opposite compartment. Confinement was achieved by blocking access to other compartments using the guillotine door. The center compartment is not seen by the rat during conditioning, and all conditioning sessions last for 45 min.
# The inventors have determined that the number of METH-pairings, and the dose of METH, dictate the strength of the drug-environment association (i.e., the magnitude of salience attribution). The test for CPP is determined in a METH-free state (i.e., at least 48 hr after that last METH pairing), at which time the rats are placed in the center compartment and allowed free access to all compartments for 30 min, and the time spent in each compartment is the index of preference. The inventors have determined that the number of METH-pairings, and the dose of METH, dictate the strength of the drug-environment association (i.e., the magnitude of salience attribution) and thus the amount of time spent in the compartment previously paired with METH (FIG. 7), as well as persistence of this effect (i.e., how long it lasts; FIG. 8A). METH-induced motor sensitization can be assessed in several ways, including assessing the capacity of the rat to express an enhanced motor response to an acute METH challenge (FIGS. 9 & 10A).
# To efficiently apply this approach to testing of 5-HT2A/2C antagonists, we determined that single pairing protocols of the CPP paradigm can be used to predict efficacy outcomes of 5-HT2A/2C antagonists in long-term tests on these drugs evaluating their capacity to nullify the persistent enhanced salience induced by METH. […] Thus, these protocols should help predict the capacity of novel therapeutic targets to halt a common problem of drug relapse, i.e., the ability of re-exposure to drugs like METH to immediately reinstate their abuse.
# [7] = target: D2 (Homo sapiens, UniProt P14416); details: read-out: receptor affinity (Ki) D2; cited from earlier work
# Sequence of D2 (P14416 whole entry): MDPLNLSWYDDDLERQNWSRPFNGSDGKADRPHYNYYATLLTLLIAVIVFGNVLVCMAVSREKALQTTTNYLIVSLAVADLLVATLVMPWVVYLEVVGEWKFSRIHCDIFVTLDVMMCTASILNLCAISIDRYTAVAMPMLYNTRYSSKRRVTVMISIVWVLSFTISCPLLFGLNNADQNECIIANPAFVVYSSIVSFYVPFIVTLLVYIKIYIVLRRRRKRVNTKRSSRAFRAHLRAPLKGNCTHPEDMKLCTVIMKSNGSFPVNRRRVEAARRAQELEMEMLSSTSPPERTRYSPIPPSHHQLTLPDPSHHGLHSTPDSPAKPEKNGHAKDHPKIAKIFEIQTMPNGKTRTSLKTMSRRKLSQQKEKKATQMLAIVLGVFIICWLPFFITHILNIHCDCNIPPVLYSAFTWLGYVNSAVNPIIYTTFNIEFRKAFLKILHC
compound,measurement,setting,value
"CN1CCN2c3ncccc3Cc3ccccc3[C@@H]2C1 (racemic) [mirtazapine, 1,2,3,4,10,14b-hexahydro-2-methyl-pyrazino[2,1-a]pyrido[2,3-c]benzazepine]",Ki,[1],65 nM
same,vertical movement suppression seen in METH-pretreated rats,[2]; mirtazapine 5 mg/kg x 15 days,attenuation of the vertical movement suppression
same,decreases in total distance traveled and time spent ambulating induced by METH pretreatments,"[2]; mirtazapine 5 mg/kg x 15 days, data not shown",attenuated the decreases
same,horizontal activity,"[2]; mirtazapine 5 mg/kg x 15 days, first 60 min after acute METH challenge",slight attenuation
same,potentiation of METH-induced sensitization for any assessed behavior,[2]; mirtazapine daily 5 mg/kg x 15 days,did not potentiate
same,overall attenuation of METH-sensitized responses,"[2]; mirtazapine daily 5 mg/kg x 15 days, M-F",greatest overall attenuation
same,mirtazapine+saline group vs saline+saline pretreated rats,"[2]; mirtazapine daily 5 mg/kg x 15 days, saline-pretreated",did not differ
same,Ki,[3],500 nM
same,Ki,[4],8 nM
same,Ki,[5],12 nM
same,preference to the place previously paired with METH (CPP expression),"[6]; 3 pairings 1 mg/kg ip METH, ten once-daily 5 mg/kg ip mirtazapine during withdrawal, day 20 (FIG. 8B)",completely reverse
same,associated motor sensitization (number of rears),"[6]; mirtazapine during METH withdrawal, METH challenge day 22 (FIG. 10B)",completely reverse
same,ability of subsequent METH pairings to induce CPP (reinstatement),"[6]; repeated mirtazapine during withdrawal, day 25 (FIG. 12)",renders ineffective
same,CPP expression after single pairing of 1.0 mg/kg METH,"[6]; single home cage injection 0.5, 1.0 or 5.0 mg/kg mirtazapine 24 h before test (FIG. 11)",reversal of METH-induced CPP
same,Ki,[7],> 1000 nM
